Values quoted from earlier work, collected in patent publication EP0023178A1, “Process for the preparation of concentrated solutions of amygdaline in its natural form” (SOMET, Société dite, priority 1979, dated 1981).

Conditions: water

Q: Which “solubilité dans l'eau” value does the source give for N#CC(OC1OC(COC2OC(CO)C(O)C(O)C2O)C(O)C(O)C1O)c1ccccc1 (stereo not drawn) [amygdaline, D ou R mandélonitrile β-gentiobioside trihydraté] here?
A: 8-8,5%
